In patent US6914045B2, “Glycopeptide antibiotics” (Wyeth Holdings Corporation, priority 2001, dated 2005):
≈ marks a conversion by molar mass, not a printed value.

Tests used:
Experiment in all cases: in vitro antibacterial evaluation, MIC by broth dilution
Assay type in all cases: cell-based
Enterococcus sp. = conditions: broth dilution, 18 hours at 35° C.
Protocol: (§1) Methods for in vitro Antibacterial Evaluation (Table 1)
(§2) The minimum inhibitory concentration (MIC), the lowest concentration of the antibiotic which inhibits growth of the test organism, is determined by the broth dilution method using Muller-Hinton II […] (Baltimore Biological Laboratories) following the recommendations of the National Committee for Clinical Laboratory Standards [Methods for dilution antimicrobial susceptibility tests for bacteria that grow aerobically, approved standard M7-A2, National Committee for Clinical Laboratory Standards, Villanova, Pa.].
(§3) An inoculum level of 5×10^5 CFU/mL, and a range of antibiotic concentrations (64-0.06 μg/mL) is used. […] The test organisms include a spectrum of Gram-positive bacteria comprised of Staphylococcus sp., Streptococcus sp. and Enterococcus sp. These organisms include recent clinical isolates that are resistant to methicillin, penicillin and/or vancomycin.

Staphylococcus sp. = conditions: broth dilution, 18 hours at 35° C.; for MIC Staphylococcus aureus (ATCC 29213): strain ATCC 29213; for MIC Staphylococcus aureus (GC 1131): strain GC 1131; for MIC Staphylococcus aureus (GC 3051): strain GC 3051; for MIC Staphylococcus aureus (GC 3053): strain GC 3053; for MIC Staphylococcus aureus (GC 4541): strain GC 4541; for MIC Staphylococcus aureus (GC 4542): strain GC 4542; for MIC Staphylococcus aureus-SMITH (GC 4543): strain GC 4543; for MIC Staphylococcus aureus (GC 4544): strain GC 4544; for MIC Staphylococcus aureus (GC 4545): strain GC 4545; for MIC Staphylococcus haemolyticus (GC 4546): strain GC 4546; for MIC Coagulase Negative Staphylococcus (GC 4547): strain GC 4547; for MIC Coagulase Negative Staphylococcus (GC 4548): strain GC 4548; for MIC Coagulase Negative Staphylococcus (GC 4549): strain GC 4549; for MIC Coagulase Negative Staphylococcus (GC 4551): strain GC 4551; for MIC Coagulase Negative Staphylococcus (GC 6257): strain GC 6257
Protocol: as §1, §2, §3

Streptococcus sp. = conditions: broth dilution, 18 hours at 35° C.
Protocol: as §1, §2, §3

Escherichia coli = conditions: 18 hours at 35° C.

## CC(c1ccccc1)C1NC(=O)CNC(=O)C(CO)NC(=O)C(C(O)C2CNC(=N)N2C2OC(CO)C(O)C(O)C2O)NC(=O)C(C(O)C2CNC(=N)N2)NC(=O)C(Cc2ccc(OC3OC(CO)C(OC4OC5COC6(OC5C(O)C4O)C4CCCC6CCC4)C(O)C3O)cc2)NC1=O (stereo not drawn) [Example 212]
Enterococcus sp.
  MIC Enterococcus avium (GC 4558): 4 µg/mL (≈ 2.83 µM)
  MIC Enterococcus faecalis (ATCC 29212): 8 µg/mL (≈ 5.65 µM)
  MIC Enterococcus faecalis (GC 2242): 8 µg/mL (≈ 5.65 µM)
  MIC Enterococcus faecalis (GC 2691): 8 µg/mL (≈ 5.65 µM)
  MIC Enterococcus faecalis (GC 3059): 8 µg/mL (≈ 5.65 µM)
  MIC Enterococcus faecalis (GC 4552): 8 µg/mL (≈ 5.65 µM)
  MIC Enterococcus faecalis (GC 4553): 8 µg/mL (≈ 5.65 µM)
  MIC Enterococcus faecalis (GC 4554): 8 µg/mL (≈ 5.65 µM)
  MIC Enterococcus faecalis (GC 6189): 8 µg/mL (≈ 5.65 µM)
  MIC Enterococcus faecium (GC 2243): 8 µg/mL (≈ 5.65 µM)
  MIC Enterococcus faecium (GC 4556): 8 µg/mL (≈ 5.65 µM)
  MIC Enterococcus faecium (GC 4557): 4 µg/mL (≈ 2.83 µM)
Enterococcus sp.; inoculum 5×10^5 CFU/mL, strain ATCC 29212
  MIC Enterococcus faecalis (ATCC 29212): 8 µg/mL (≈ 5.65 µM)
Enterococcus sp.; inoculum 5×10^5 CFU/mL, strain GC 2242
  MIC Enterococcus faecalis (GC 2242): 8 µg/mL (≈ 5.65 µM)
Enterococcus sp.; inoculum 5×10^5 CFU/mL, strain GC 2243
  MIC Enterococcus faecium (GC 2243): 8 µg/mL (≈ 5.65 µM)
Enterococcus sp.; inoculum 5×10^5 CFU/mL, strain GC 2691
  MIC Enterococcus faecalis (GC 2691): 8 µg/mL (≈ 5.65 µM)
Enterococcus sp.; inoculum 5×10^5 CFU/mL, strain GC 3059
  MIC Enterococcus faecalis (GC 3059): 8 µg/mL (≈ 5.65 µM)
Enterococcus sp.; inoculum 5×10^5 CFU/mL, strain GC 4552
  MIC Enterococcus faecalis (GC 4552): 8 µg/mL (≈ 5.65 µM)
Enterococcus sp.; inoculum 5×10^5 CFU/mL, strain GC 4553
  MIC Enterococcus faecalis (GC 4553): 8 µg/mL (≈ 5.65 µM)
Enterococcus sp.; inoculum 5×10^5 CFU/mL, strain GC 4554
  MIC Enterococcus faecalis (GC 4554): 8 µg/mL (≈ 5.65 µM)
Enterococcus sp.; inoculum 5×10^5 CFU/mL, strain GC 4556
  MIC Enterococcus faecium (GC 4556): 8 µg/mL (≈ 5.65 µM)
Enterococcus sp.; inoculum 5×10^5 CFU/mL, strain GC 4557
  MIC Enterococcus faecium (GC 4557): 4 µg/mL (≈ 2.83 µM)
Enterococcus sp.; inoculum 5×10^5 CFU/mL, strain GC 4558
  MIC Enterococcus avium (GC 4558): 4 µg/mL (≈ 2.83 µM)
Enterococcus sp.; inoculum 5×10^5 CFU/mL, strain GC 6189
  MIC Enterococcus faecalis (GC 6189): 8 µg/mL (≈ 5.65 µM)
Staphylococcus sp.
  MIC Staphylococcus aureus (ATCC 29213): 2 µg/mL (≈ 1.41 µM)
  MIC Staphylococcus aureus (GC 1131): 4 µg/mL (≈ 2.83 µM)
  MIC Staphylococcus aureus (GC 3051): 2 µg/mL (≈ 1.41 µM)
  MIC Staphylococcus aureus (GC 3053): 4 µg/mL (≈ 2.83 µM)
  MIC Staphylococcus aureus (GC 4541): 2 µg/mL (≈ 1.41 µM)
  MIC Staphylococcus aureus (GC 4542): 2 µg/mL (≈ 1.41 µM)
  MIC Staphylococcus aureus-SMITH (GC 4543): 2 µg/mL (≈ 1.41 µM)
  MIC Staphylococcus aureus (GC 4544): 4 µg/mL (≈ 2.83 µM)
  MIC Staphylococcus aureus (GC 4545): 2 µg/mL (≈ 1.41 µM)
  MIC Staphylococcus haemolyticus (GC 4546): 2 µg/mL (≈ 1.41 µM)
  MIC Coagulase Negative Staphylococcus (GC 4547): 2 µg/mL (≈ 1.41 µM)
  MIC Coagulase Negative Staphylococcus (GC 4548): 2 µg/mL (≈ 1.41 µM)
  MIC Coagulase Negative Staphylococcus (GC 4549): 2 µg/mL (≈ 1.41 µM)
  MIC Coagulase Negative Staphylococcus (GC 4551): 2 µg/mL (≈ 1.41 µM)
  MIC Coagulase Negative Staphylococcus (GC 6257): 1 µg/mL (≈ 0.706 µM)
Streptococcus sp.
  MIC Streptococcus agalactiae (GC 4564): 1 µg/mL (≈ 0.706 µM)
  MIC Streptococcus pneumoniae (ATCC 6301): 0.5 µg/mL (≈ 0.353 µM)
  MIC Streptococcus pneumoniae (GC 1894): <0.06 µg/mL
  MIC Streptococcus pneumoniae (GC 4565): 0.25 µg/mL (≈ 0.177 µM)
  MIC Streptococcus pyogenes (GC 4563): 1 µg/mL (≈ 0.706 µM)
Streptococcus sp.; inoculum 5×10^5 CFU/mL, strain ATCC 6301
  MIC Streptococcus pneumoniae (ATCC 6301): 0.5 µg/mL (≈ 0.353 µM)
Streptococcus sp.; inoculum 5×10^5 CFU/mL, strain GC 1894
  MIC Streptococcus pneumoniae (GC 1894): <0.06 µg/mL
Streptococcus sp.; inoculum 5×10^5 CFU/mL, strain GC 4563
  MIC Streptococcus pyogenes (GC 4563): 1 µg/mL (≈ 0.706 µM)
Streptococcus sp.; inoculum 5×10^5 CFU/mL, strain GC 4564
  MIC Streptococcus agalactiae (GC 4564): 1 µg/mL (≈ 0.706 µM)
Streptococcus sp.; inoculum 5×10^5 CFU/mL, strain GC 4565
  MIC Streptococcus pneumoniae (GC 4565): 0.25 µg/mL (≈ 0.177 µM)
Escherichia coli
  MIC Escherichia coli (ATCC 25922): 32 µg/mL (≈ 22.6 µM)
  MIC Escherichia coli (GC 4559): 32 µg/mL (≈ 22.6 µM)
  MIC Escherichia coli (GC 4560): 2 µg/mL (≈ 1.41 µM)

## CC(c1ccccc1)C1NC(=O)CNC(=O)C(CO)NC(=O)C(C(O)C2CNC(=N)N2C2OC(CO)C(O)C(O)C2O)NC(=O)C(C(O)C2CNC(=N)N2)NC(=O)C(Cc2ccc(O)c(NC(=S)Nc3cc(C(F)(F)F)cc(C(F)(F)F)c3)c2)NC1=O (stereo not drawn) [Example 24, Cyclo[glycyl-β-methylphenylalanyl-3-[[[3,5-bis(trifluoromethyl)phenyl]carbamothioyl]amino]-tyrosyl-3-(2-iminoimidazolidin-4-yl)seryl-3-(3-hexopyranosyl-2-iminoimidazolidin-4-y)-serylseryl]]
Enterococcus sp.; strain ATCC 29212
  MIC Enterococcus faecalis (ATCC 29212): 64 µg/mL (≈ 50.9 µM)
Enterococcus sp.; strain GC 2242
  MIC Enterococcus faecalis (GC 2242): 64 µg/mL (≈ 50.9 µM)
Enterococcus sp.; strain GC 2243
  MIC Enterococcus faecium (GC 2243): 64 µg/mL (≈ 50.9 µM)
Enterococcus sp.; strain GC 2691
  MIC Enterococcus faecalis (GC 2691): >64 µg/mL
Enterococcus sp.; strain GC 3059
  MIC Enterococcus faecalis (GC 3059): >64 µg/mL
Enterococcus sp.; strain GC 4552
  MIC Enterococcus faecalis (GC 4552): >64 µg/mL
Enterococcus sp.; strain GC 4553
  MIC Enterococcus faecalis (GC 4553): 32 µg/mL (≈ 25.5 µM)
Enterococcus sp.; strain GC 4554
  MIC Enterococcus faecalis (GC 4554): >64 µg/mL
Enterococcus sp.; strain GC 4556
  MIC Enterococcus faecium (GC 4556): 64 µg/mL (≈ 50.9 µM)
Enterococcus sp.; strain GC 4557
  MIC Enterococcus faecium (GC 4557): 32 µg/mL (≈ 25.5 µM)
Enterococcus sp.; strain GC 4558
  MIC Enterococcus avium (GC 4558): 64 µg/mL (≈ 50.9 µM)
Enterococcus sp.; strain GC 6189
  MIC Enterococcus faecalis (GC 6189): >64 µg/mL
Staphylococcus sp.
  MIC Staphylococcus aureus (ATCC 29213): >64 µg/mL
  MIC Staphylococcus aureus (GC 1131): >64 µg/mL
  MIC Staphylococcus aureus (GC 3051): >64 µg/mL
  MIC Staphylococcus aureus (GC 3053): >64 µg/mL
  MIC Staphylococcus aureus (GC 4541): >64 µg/mL
  MIC Staphylococcus aureus (GC 4542): >64 µg/mL
  MIC Staphylococcus aureus-SMITH (GC 4543): >64 µg/mL
  MIC Staphylococcus aureus (GC 4544): >64 µg/mL
  MIC Staphylococcus aureus (GC 4545): >64 µg/mL
  MIC Staphylococcus haemolyticus (GC 4546): 64 µg/mL (≈ 50.9 µM)
  MIC Coagulase Negative Staphylococcus (GC 4547): 64 µg/mL (≈ 50.9 µM)
  MIC Coagulase Negative Staphylococcus (GC 4548): 64 µg/mL (≈ 50.9 µM)
  MIC Coagulase Negative Staphylococcus (GC 4549): >64 µg/mL
  MIC Coagulase Negative Staphylococcus (GC 4551): >64 µg/mL
  MIC Coagulase Negative Staphylococcus (GC 6257): 32 µg/mL (≈ 25.5 µM)
Streptococcus sp.; strain ATCC 6301
  MIC Streptococcus pneumoniae (ATCC 6301): >64 µg/mL
Streptococcus sp.; strain GC 1894
  MIC Streptococcus pneumoniae (GC 1894): 64 µg/mL (≈ 50.9 µM)
Streptococcus sp.; strain GC 4563
  MIC Streptococcus pyogenes (GC 4563): 64 µg/mL (≈ 50.9 µM)
Streptococcus sp.; strain GC 4564
  MIC Streptococcus agalactiae (GC 4564): >64 µg/mL
Streptococcus sp.; strain GC 4565
  MIC Streptococcus pneumoniae (GC 4565): >64 µg/mL
Escherichia coli; strain ATCC 25922, broth dilution
  MIC Escherichia coli (ATCC 25922): >64 µg/mL
Escherichia coli; strain GC 4559, broth dilution
  MIC Escherichia coli (GC 4559): >64 µg/mL
Escherichia coli; strain GC 4560, broth dilution
  MIC Escherichia coli (GC 4560): 32 µg/mL (≈ 25.5 µM)
